Experimental data reported in US20030181436A1, “Treatment for AIDS, HIV, and other related diseases and compounds for use therewith” (priority 2001, published 2003).

Tests used:
Format in all cases: cell-based
U1 cells = assay: U1 assay, compound toxicity by MTS dye reduction; set-up: TC50: unit not given here
Method: At assay termination the assay plates were stained with the soluble tetrazolium-based dye MTS (CellTiter® Reagent, Promega) to determined cell viability and quantify compound toxicity. […] At termination of the assay 20 μL of MTS reagent was added per well. The wells were incubated for 4 h at 37° C., 5% CO2. Adhesive plate scalers were used in place of the lids, the sealed plate was inverted several times to mix the soluble formazan product and the plate was read spectrophotometrically at 490 nm with a 650 nm reference wavelength on a Molecular Devices Vmax plate reader.
(§1) U1 and ACH-2 cells were obtained from the AIDS Research and Reference Reagent Program and maintained under standard culture conditions in RPMI 1640 supplemented with 10% fetal bovine serum (heat inactivated), supplemented with 2 mM […], 100U/ml penicillin and 100 μg/ml, streptomycin. U1 cells were derived from the histocytic leukemia cell line U937, and contain a single integrated copy (HIV IIIB) […] a cytokine and/or phorbol inducible provirus. ACH-2 cells are derived from the A3.01 T lymphoblastic cell line, and contain 2 copies of the HIV IIIB provirus, however only one is cytokine and/or phorbol inducible. Cultures were maintained in such a way as to ensure exponential growth of the populations. At the time of the assay, cells were collected by centrifugation and counted by hemacytometer. If cell viability by Trypan Blue dye exclusion was less than 70% the assay was terminated. The cells were adjusted to 5×10^4 cells/mL and 100 μL, placed in 96 well plates with 100 μL media containing a final concentration of […] TNFα and the test compound. Cultures were incubated for 3 days and supernatants harvested. Compound toxicity was determined by MTS dye reduction. Virus expression was measured by supernatant reverse transcriptasc activity.

[1] = system: TNFα induced U1 cells (HIV IIIB provirus); assay: U1 latent infection assay, supernatant reverse transcriptase activity; settings: for % VC / RT ACTIVITY (cpm) MEAN: exp 2; for RT VALUES (cpm) MEAN / X VC: exp 1
Method: as §1
(§2) Reverse transcriptase activity was measured in cell-free supernatants. Tritiated thymidine triphosphate (NEN) (TTP) was resuspended in distilled H2O at 5 Ci/mL. Poly rA and oligo dT were prepared as a stock solution which was kept at −20° C. The RT reaction buffer was prepared fresh on a daily basis and consists of 125 μL 1.0 M EGTA, 125 μL dH2O, 110 μL 10% SDS, 50 μL 1.0 M Tris (pH 7.4), 50 μL, 1.0 M DTT, and 40 μL 1.0 M MgCl2. These three solutions were mixed together in a ratio of 2 parts TTP, 1 part poly rA:oligo dT, and 1 part reaction buffer. Ten microliters of this reaction mixture was placed in a round bottom microtiter plate and 15 μL of virus containing supernatant was added and mixed. The plate was incubated at 37° C. in a water bath with a solid support to prevent submersion of the plate and incubated for 60 minutes. Following reaction, the reaction volume was spotted onto pieces of DE81 paper, washed 5 times for 5 minutes each in a 5% sodium phosphate buffer, 2 times for 1 minute each in distilled water, 2 times for 1 minute each in 70% ethanol, and then dried. Opti-Fluor O was added to each sample and incorporated radioactivity was quantitated utilizing a Wallac 1450 Microbetaplus liquid scintillation counter.

[2] = system: HIV RoJo (a clinical isolate); assay: Chronically infected PBMCs, supernatant reverse transcriptase activity
Method: as §2
In these studies PBMCs are infected with HIV RoJo (a clinical isolate) and a dynamic population of infected PBMCs established over a period of 2 to 3 weeks. This population of infected PBMCs was established and maintained by the addition of fresh PBMCs in a 1:1 ratio every 7 days, thus overcoming the lost of PBMCs to normal cell death processes. Thus a population of cells was established that consisted of uninfected cells, short lived infected cells and long lived infected cells. In experiments where AZT was added to prevent re-infection of the population, we typically saw a 50% reduction in infection following a 7 day treatment. This means that 50% of the virus production from the infected […] population was due re-infection. […] Thus there was a population of infected PBMCs present ([…] of the total) which survived for extended periods of time and thus met the definition of being chronically infected.

## Zinc Iodiscorbate [Compound Z]
U1 cells; 0.00063 ug/ml, exp 2
  TOXICITY VALUES MEAN: 1.055 O. D.
U1 cells; 0.002 ug/ml, exp 2
  % CC: 90.5%
  TOXICITY VALUES MEAN: 0.963 O. D.
U1 cells; 0.00625 ug/ml, exp 2
  TOXICITY VALUES MEAN: 1.103 O. D.
U1 cells; 0.02 ug/ml, exp 2
  TOXICITY VALUES MEAN: 1.064 O. D.
U1 cells; 0.0625 ug/ml, exp 2
  TOXICITY VALUES MEAN: 1.072 O. D.
U1 cells; 0.2 ug/ml, exp 2
  TOXICITY VALUES MEAN: 1.031 O. D.
U1 cells; 0.625 ug/ml, exp 1
  TOXICITY VALUES (MTS) MEAN: 1.791 O. D.
U1 cells; 0.625 ug/ml, exp 2
  % CC: 81.6%
  TOXICITY VALUES MEAN: 0.868 O. D.
U1 cells; 2 ug/ml, exp 1
  TOXICITY VALUES (MTS) MEAN: 1.732 O. D.
U1 cells; 2 ug/ml, exp 2
  % CC: 82.3%
  TOXICITY VALUES MEAN: 0.876 O. D.
U1 cells; 6.25 ug/ml [c2], exp 2
  % CC: 35.3%
  TOXICITY VALUES MEAN: 0.376 O. D.
U1 cells; 6.25 ug/ml [c4], exp 2
  TOXICITY VALUES MEAN: 1.118 O. D.
U1 cells; 6.25 ug/ml, exp 1
  TOXICITY VALUES (MTS) MEAN: 1.649 O. D.
U1 cells; 20 ug/ml, exp 1
  % CC: 91.7%
  TOXICITY VALUES (MTS) MEAN: 1.625 O. D.
U1 cells; 20 ug/ml, exp 2
  % CC: 61.7%
  TOXICITY VALUES MEAN: 0.658 O. D.
U1 cells; 62.5 ug/ml, exp 1
  % CC: 77.8%
  TOXICITY VALUES (MTS) MEAN: 1.379 O. D.
U1 cells; 200 ug/ml, exp 1
  % CC: 3.6%
  TOXICITY VALUES (MTS) MEAN: 0.063 O. D.
U1 cells; 200 ug/ml, exp 2
  % CC: 7.1%
  TOXICITY VALUES MEAN: 0.076 O. D.
U1 cells; U1, experiment 1, Table 1
  TC50: 114
U1 cells; U1, experiment 2, Table 1
  TC50: 39
U1 cells; exp 2
  U1 TC50: 38.8 µg/mL
U1 cells; exp 2, listed as COMPOUND Z
  U1 TC50: TC50 (uglml) = 38.80 μg/ml
[1]
  activity in the U1 assay: inactive
[1]; 0.00063 ug/ml
  % VC: 110.1%
[1]; 0.002 ug/ml
  % VC: 105.4%
  RT ACTIVITY (cpm) MEAN: 3245 cpm
[1]; 0.00625 ug/ml
  % VC: 99.9%
  RT ACTIVITY (cpm) MEAN: 3077 cpm
[1]; 0.02 ug/ml
  % VC: 94.2%
  RT ACTIVITY (cpm) MEAN: 2902 cpm
[1]; 0.0625 ug/ml
  % VC: 93.9%
  RT ACTIVITY (cpm) MEAN: 2891 cpm
[1]; 0.2 ug/ml
  % VC: 101.2%
  RT ACTIVITY (cpm) MEAN: 3115 cpm
[1]; 0.625 ug/ml
  RT VALUES (cpm) MEAN: 2504.7 cpm
  X VC: 106.3
  % VC: 64.4%
  RT ACTIVITY (cpm) MEAN: 1984 cpm
[1]; 2 ug/ml
  RT VALUES (cpm) MEAN: 2492.7 cpm
  X VC: 105.8
  % VC: 59.7%
  RT ACTIVITY (cpm) MEAN: 1838 cpm
[1]; 6.25 ug/ml
  RT VALUES (cpm) MEAN: 2813.0 cpm
  X VC: 119.4
  % VC: 66.9%
  RT ACTIVITY (cpm) MEAN: 2059 cpm
[1]; 20 ug/ml
  RT VALUES (cpm) MEAN: 2385.7 cpm
  X VC: 101.2
  % VC: 63.2%
  RT ACTIVITY (cpm) MEAN: 1947 cpm
[1]; 62.5 ug/ml
  RT VALUES (cpm) MEAN: 2253.7 cpm
  X VC: 95.6
  % VC: 39.78%
  RT ACTIVITY (cpm) MEAN: 1225 cpm
[1]; 200 ug/ml
  RT VALUES (cpm) MEAN: 802.7 cpm
  X VC: 34.1
  % VC: 30.84%
  RT ACTIVITY (cpm) MEAN: 950 cpm
[1]; U1, exp 2, Table 8
  IC50: IC50 (uglml) = 43.99
[1]; U1, experiment 1, Table 1
  IC50: 164 µg/mL
[1]; U1, experiment 2, Table 1
  IC50: 44 µg/mL
[1]; U1/TNFα, exp 1, Table 3
  IC50: IC50 (ug/ml) = ..164.40
[1]; exp 2, Table 4
  U1 EC50: 44.0 µg/mL
[2]; 21 days
  IC50 in chronically infected PBMCs: approximately 30 μg/ml
[2]; Day 7, 1 μg/ml
  Percent Control by Supernatant Reverse Transcriptase activity: 256 Percent Control
[2]; Day 7, 5 μg/ml
  Percent Control by Supernatant Reverse Transcriptase activity: 303 Percent Control
[2]; Day 7, 10 μg/ml
  Percent Control by Supernatant Reverse Transcriptase activity: 230 Percent Control
[2]; Day 7, 25 μg/ml
  Percent Control by Supernatant Reverse Transcriptase activity: 217 Percent Control
[2]; Day 7, 50 μg/ml
  Percent Control by Supernatant Reverse Transcriptase activity: 229 Percent Control
[2]; Day 7, 100 μg/ml
  Percent Control by Supernatant Reverse Transcriptase activity: 167 Percent Control
[2]; Day 14, 1 μg/ml
  Percent Control by Supernatant Reverse Transcriptase activity: 63 Percent Control
[2]; Day 14, 5 μg/ml
  Percent Control by Supernatant Reverse Transcriptase activity: 87 Percent Control
[2]; Day 14, 10 μg/ml
  Percent Control by Supernatant Reverse Transcriptase activity: 69 Percent Control
[2]; Day 14, 25 μg/ml
  Percent Control by Supernatant Reverse Transcriptase activity: 74 Percent Control
[2]; Day 14, 50 μg/ml
  Percent Control by Supernatant Reverse Transcriptase activity: 67 Percent Control
[2]; Day 14, 100 μg/ml
  Percent Control by Supernatant Reverse Transcriptase activity: 49 Percent Control
[2]; da 21, 1 μg/ml
  Percent Control by Supernatant Reverse Transcriptase activity: 80 Percent Control
[2]; da 21, 5 μg/ml
  Percent Control by Supernatant Reverse Transcriptase activity: 70 Percent Control
[2]; da 21, 10 μg/ml
  Percent Control by Supernatant Reverse Transcriptase activity: 56 Percent Control
[2]; da 21, 25 μg/ml
  Percent Control by Supernatant Reverse Transcriptase activity: 60 Percent Control
[2]; da 21, 50 μg/ml
  Percent Control by Supernatant Reverse Transcriptase activity: 48 Percent Control
[2]; da 21, 100 μg/ml
  Percent Control by Supernatant Reverse Transcriptase activity: 22 Percent Control
